Data reported in patent US20190298745A1, “COMPOSITION FOR CONTROLLING SECRETION OF PROSTASOMES AND USE THEREOF” (Industrial Cooperation Foundation Chonbuk National, priority 2018, published 2019).
Entries after “also recorded” stand apart in the source; their conditions may differ.

Key:
[1] = tested on: DU-145, human prostate cancer cell line; test: Intracellular calcium measurement (fluo-3, confocal microscopy); type: cell-based; settings: for continuous increase of [Ca2+]i by KCl treatment: pretreatment with antagonist before KCl, FIG. 2B-D
Experimental: DU-145, human prostate cancer cell line, was pretreated with a regulator of intracellular calcium (Ca^2+) signaling second messenger, and the intracellular calcium signaling pattern thereof was analyzed. The concentration of intracellular calcium was measured by the following method: A cell suspension pretreated with a fluo-3 (molecular probe, USA) was titrated in a confocal dish (SPL, Seoul, Korea) coated with poly-L-lysine (Sigma-Aldrich, USA) and reacted for 20 minutes in a CO2 incubator to attach the cells. Then, the intracellular calcium amount was measured by a confocal microscopy system of Nikon Co, using the method of Tsien et al. (Tsien et al., Nature 295, 68-71 (1982)), and the results are illustrated in FIG. 2.

mouse sperms = test: Sperm motility test (CASA) of sperms fused with prostasomes from PPECs; type: cell-based; settings: sperms fused with PPECs-derived prostasomes (with or without pretreatment of the prostate cells), vs no fusion; FIG. 5
Experimental: The prostasomes of the mouse were obtained by incising the mouse abdominal cavity and obtaining the prostate under the bladder through microsurgery (Drost et al, 2016, Nat Protoc. 11(2): 347-358). Later, the effluent from the prostate gland was collected from the prostate and diluted using BWW (Bigger, Whitten, arid Whittingham) medium [10 mM Hepes, 20 mM sodium lactate, 5 mM glucose, 0.25 mM sodium pyruvate, penicillin G (80 mg/L), streptomycin sulfate (50 mg/L), 95 mM NaCl, 4.8 mM KCl, 1.3 mM CaCl2, 1.2 mM KH2PO4, and 1.2 mM MgSO4 in 25 mM NaHCO3 buffer, pH 7.4]). The supernatant was used to collect prostasomes by the same method as described above.
To collect mouse sperms which are not fused with prostasomes, the tail epididymis of a male mouse was surgically removed, and blood and adipose tissue were removed using ophthalmic scissors. The epididymis was punctured with a 30 gauge sterilized needle and pinched by tweezers to release a large number of sperms. […]
Specifically, the isolated sperms were diluted with a weak alkaline buffer with 0.32 M sucrose or binding buffer 150 mM NaCl, 1 mM CaCl2, 1 mM MgCl2, 5 mM glucose with 2 mM Hepes (pH 8.0)/20 mM MES (pH 5.0, binding buffer). […] The sperm motility rate was measured using a computer assisted sperm analysis (CASA) device (IVOS, Hamilton Thorne Biosciences, USA). […]

[2] = tested on: DU-145, human prostate cancer cell line; test: Western blotting of prostasome (exosomal) marker proteins in prostasomes from culture supernatant; type: cell-based
Experimental: Specifically, the prostate cancer cell line DU-145 were cultured in DMEM (GIBCO/Invitrogen, USA) supplemented with 10% exosome-free FBS (GIBCO/Invitrogen, USA) and 1% antibiotics-antimycotic (GIBCO/Invitrogen, USA) under the conditions of 37° C. and 5% CO2. The cell culture was collected and centrifuged at 3,000 rpm for 30 minutes to separate the supernatant. The supernatant was centrifuged at 15,000×g for 20 minutes using a Beckman's high-speed centrifuge, and the supernatant was separated again. The supernatant was centrifuged at 105,000×g for 2 hours using a high-speed centrifuge to obtain a precipitate. The collected precipitate was resuspended in the same buffer. The first eluted fraction was collected using sephadex G-200 (Sigma, USA), centrifuged again, and then suspended for use. 20 μg of protein was inactivated in 5× sample buffer at 100° C. for 5 minutes and then electrophoresed on a 10% SDS polyacrylamide gel. The separated proteins were transferred to a PVDF membrane and blocked in 2% BSA for 90 minutes. The respective HSP70, β-actin, Rab5 and LAMP1 antibodies were placed overnight at 4° C. in a ratio of 1:1,000 and then washed three times for 10 minutes with tris-buffered saline Tween-20 (TBST) buffer. The secondary antibodies were diluted at a ratio of 1:1,000 and allowed to adhere at room temperature for 2 hours. The membranes washed three times for 15 minutes with TBST buffer were treated with ECL (Bio-Rad, USA), and the amount of the protein expression was measured with LAS-500 (GE Healthcare Life Science, USA). DU-145, prostate cancer cell line, was treated with KCl, which induces cell membrane depolarization. Western blotting was performed to identify changes in prostasome-related protein expression. Specifically, the cells were cultured with KCl at various concentrations (0, 5, 10, 25, 50 and 100 mM) for 1 hour, and prostasomes were prepared from the culture supernatant by the method described in Experimental Example 1 and subjected to Western blotting. Further, cells were cultured with 25 mM KCl for various times (0, 10, 30, 60, 120 and 180 minutes) and subjected to Western blotting. The results are illustrated in FIG. 1. Furthermore, DU-145, human prostate cancer cell line was pretreated with a regulator of intracellular calcium (Ca^2+) signaling second messenger to analyze the change in the prostasome-related protein expression. Specifically, DU-145 cells were treated with various antagonists (regulator of intracellular calcium signaling second messenger) such as 100 μg/ml heparin (selective IP3 receptor inhibitor), 50 μM 8-Br-cADPR (antagonist of cADPR) and 1 μM NED-19 (antagonist of NAADP) together with 25 mM KCl. Prostasomes were prepared from the culture supernatant by the method described in Experimental Example 1, and Western blotting was performed. All antagonists were preincubated for 30 minutes before KCl treatment, and the cells were cultured for an additional 1 hour after KCl treatment. The results are illustrated in FIG. 3. Capsaicin (Sigma Aldrich, Mo., USA), which induces intracellular calcium (Ca^2+) signaling, was used to confirm the change in prostasome-related protein expression according to capsaicin treatment in DU-145, human prostate cancer cell line by Western blot. Specifically, the cells were cultured with capsaicin at various concentrations (0, 12.5, 25, 50, 100 and 200 μM) for 3 hours, and prostasomes were prepared from the culture supernatant by the method described in Example 2 and subjected to Western blotting, The cells were also cultured with 50 μM capsaicin for various times (0, 10, 30, 60, […], 120 and 180 minutes) and subjected to Western blotting. The results are illustrated in FIG. 4.

mouse oocytes = test: In vitro fertilization test; type: cell-based; settings: sperms fused with prostasomes obtained with or without pretreatment by regulator, reacted with oocytes, 36 hours; FIG. 6
Experimental: In order to perform the in vitro fertilization test, the method of Ren et al. (Ren et al., Nature 413, 603-609 (2001)) was modified and used. A 10 to 12-week-old female mouse was injected with pregnant mare serum gonadotropin (PMSG) (5 IU; Sigma-Aldrich). After 48 hours, the mouse was injected with human chorionic gonadotropin (hCG) (5 IU; Sigma-Aldrich). After 14 hours of the last injection, uterine tubes were removed and perfused with IVF medium (Medicult, USA), and flown oocytes were collected using a low magnification microscope.
The collected oocytes were resuspended in IVF medium and were cultured with prostasomes which were obtained in the presence or absence of the regulator of the intracellular calcium signaling second messenger, causing fertilization reaction. The heated mineral oil was overlaid on top of the medium to block the outside air. After 36 hours of the culture, the total number of oocytes contained in the culture medium was counted under a microscope, and cells above the two-cell stage were counted. The fertilization rate was calculated using the following formula. The case that the sperms that had undergone the same fusion process without prostasome treatment were cultured with about 15 oocytes was referred to as 100%. The results are illustrated in FIG. 6. […]

C57BL/6 mice = test: In vivo fertilization test in mice (number of pups); parameters: species or system mouse; settings: male C57BL/6 mice, 50 mg/kg intraperitoneally twice daily for 2 weeks, then mating 1:1 for 48 hours; FIG. 7
Experimental: The number of pups was measured in the mouse breeding process to confirm the increase of reproductive ability due to the promotion of the prostasome secretion (Nambu University's animal test approval number #201604), 7-week-old male C57BL/6 mice were randomly assigned into three groups and adapted to the breeding conditions. The groups were divided into the normal untreated group, the solvent-[…] group, and the capsaicin-treated group. Capsaicin was prepared at a high concentration (100-fold) in DMSO, then diluted in phosphate buffered saline (PBS, pH 7.2), and used as an injection. In the solvent-treated group, PBS (200 μl) diluted with the same volume of DMSO was administered. Twice daily capsaicin (50 mg/kg) and placebo were intraperitoneally injected into each experimental group for 2 weeks. Then, each mouse was caged with a female c57BL/6 mouse adapted for the same breeding condition, mating them at a ratio of 1:1 for 48 hours. The mating started at 6 pm, and the mating success was evaluated by confirming that the plaque was formed at the vaginal entrance at 9:00 am, but it was maintained for 48 hours considering the possibility of premature dropping. Then, only the female was separated from each cage, and the separate breeding was performed for each group. After the gestation period (about 21 days), the number of pups was counted. […]

Molecule: N=c1c2nc(Br)n3c2ncn1C1OC(COP(=O)(O)OP(=O)(O)OCC2OC3C(O)C2O)C(O)C1O (centres unmarked) [8-br-cADPR, 8-Br-cADPR]
- continuous increase of [Ca2+]i by KCl treatment [1]: suppressed

Molecule: O=P(O)(O)O[C@@H]1[C@H](O)[C@H](O)[C@@H](OP(=O)(O)O)[C@H](OP(=O)(O)O)[C@H]1O [D-myo-IP3, D-myo-Inositol 1,4,5-triphosphate]
- sperm motility rate (mouse sperms): doubling; also recorded: doubled

Molecule: [Cl-].[K+] [KCl]
- HSP70 expression ([2]; 25 mM KCl alone without an antagonist, 1 hour, FIG. 3): increased
- protein expression of HSP70 and LAMP1 ([2]; 25 mM KCl for 0, 10, 30, 60, 120 and 180 minutes, FIG. 1B): increased in a time-dependent manner
- protein expression of HSP70, Rab5 and LAMP1 (exosomal markers) ([2]; KCl 0, 5, 10, 25, 50 and 100 mM for 1 hour, FIG. 1A): increased in a concentration-dependent manner
- intracellular calcium ([Ca2+]) ([1]; 120 μM KCl, FIG. 2A): rapidly increased

Molecule: COc1ccc([C@H]2N[C@H](C(=O)O)Cc3c2[nH]c2ccccc32)cc1CN1CCN(c2ccccc2F)CC1 [Ned-19]
- HSP70 expression (KCl-induced) with antagonist ([2]; 100 μg/ml heparin, 50 μM 8-Br-cADPR or 1 μM NED-19 preincubated 30 minutes, then 25 mM KCl 1 hour, FIG. 3): did not show the inhibitory effect
- continuous increase of [Ca2+]i by KCl treatment [1]: not suppressed

Molecule: C1CCC[C@H]2CCCN3CC[C@@H](CCCCCC[C@@H]4CCCN5CC[C@@H](CC1)O[C@@H]45)O[C@@H]23 [Xestospongin C]
- fertility (fertilization rate) (mouse oocytes): reduced to be similar to that of the negative control
- continuous increase of [Ca2+]i by KCl treatment [1]: suppressed

Molecule: COc1cc(CNC(=O)CCCC/C=C/C(C)C)ccc1O [capsaicin]
- protein expression of HSP70, LAMP1 and Rab5 ([2]; 50 μM capsaicin for 0-180 minutes, FIG. 4B): increased in a time-dependent manner
- protein expression of HSP70 ([2]; capsaicin 0, 12.5, 25, 50, 100 and 200 μM for 3 hours, FIG. 4A): increased in a concentration-dependent manner
- number of pups (C57BL/6 mice): increased

Molecule: heparin
- fertility (fertilization rate) (mouse oocytes): reduced to be similar to that of the negative control
